The values below come from patent US10407409B2, “6-(5-hydroxy-1H-pyrazol-1-yl)nicotinamide inhibitors of PHD” (Takeda Pharmaceutical Company Limited, priority 2013, dated 2019).

Experiment [1] deals with PHD2 enzyme (residues 181-417) (Homo sapiens (Human), UniProt Q9GZT9). In words: Inhibition of PHD enzyme (LC/MS peptide hydroxylation assay). The format is biochemical. As to conditions: PHD2 (residues 181-417) 5 nM, 60 min pre-incubation, -log(IC50), IC50 molar. Put shortly: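 PHD2 (5 nM final) preincubated with inhibitor 60 min at RT in 50 mM HEPES, 50 mM KCl, 0.5 mM TCEP, 2 uM FeCl2, 0.1 mg/ml BSA, pH 7.3. Reaction started with biotin-peptide (1 uM), 2-oxoglutarate (2 uM), ascorbate (1 mM), quenched at 60 min; hydroxylated product by LC/MS, reported as pIC50.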
Chain of PHD2 enzyme (residues 181-417) (Q9GZT9 181-417): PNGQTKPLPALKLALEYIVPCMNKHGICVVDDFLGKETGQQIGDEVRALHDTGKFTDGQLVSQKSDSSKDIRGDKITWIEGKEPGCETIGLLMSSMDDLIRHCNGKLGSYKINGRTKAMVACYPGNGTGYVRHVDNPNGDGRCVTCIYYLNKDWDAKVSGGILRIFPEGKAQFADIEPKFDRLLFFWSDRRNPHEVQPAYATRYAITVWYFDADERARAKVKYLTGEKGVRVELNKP

In experiment [2] the test system is HIF1a protein in H9c2 rat cardiomyocytes. The experiment in a line: Cell-based HIF-alpha stabilization assay (inhibition of PHD in cells). To be noted: 24 hrs compound incubation, HIF1a protein by ELISA; for EC50: Rattus norvegicus, H9c2, 24 h, read-out: Inhibition of PHD in cells (pEC50) (converted). Put shortly:
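Rat H9c2 cardiomyocytes, cultured 24 h, were treated 24 h with an 11-point serial dilution of compound. HIF1a in whole-cell lysates was quantified by ELISA as % of the maximal desferrioxamine response. EC50 came from curve fitting; EC50pos is the concentration reaching 50% of the desferrioxamine maximum.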

As for `Cc1cc(C#N)ccc1-c1cnn(-c2ccc(C(=O)NCCC3CCOCC3)cn2)c1O` [Example 64, 6-(4-(4-cyano-2-methylphenyl)-5-hydroxy-1H-pyrazol-1-yl)-N-(2-(tetrahydro-2H-pyran-4-yl)ethyl)nicotinamide], the “PHD Inhibition (pIC50)” value in experiment [1] was determined as 7.25. Besides, the EC50 in experiment [2] is 158 nM.
The corresponding values for `COCCCNC(=O)c1ccc(-n2ncc(-c3ccc(C#N)cc3OC)c2O)nc1` [Example 231, 6-(4-(4-cyano-2-methoxyphenyl)-5-hydroxy-1H-pyrazol-1-yl)-N-(3-methoxypropyl)nicotinamide] are 6.95 and 372 nM.
As for `COc1cc(-c2cnn(-c3ccc(C(=O)N(C)C4CC4)cn3)c2O)ccn1` [Example 243, N-cyclopropyl-6-(5-hydroxy-4-(2-methoxypyridin-4-yl)-1H-pyrazol-1-yl)-N-methylnicotinamide], the “PHD Inhibition (pIC50)” value in experiment [1] came to 6.9. In addition, the EC50 in experiment [2] was 4170 nM.
The corresponding values for `Cc1cc(C#N)c(F)cc1-c1cnn(-c2ccc(C(=O)N3CCN(C)CC3)cn2)c1O` [Example 396, 2-fluoro-4-(5-hydroxy-1-(5-(4-methylpiperazine-1-carbonyl)pyridin-2-yl)-1H-pyrazol-4-yl)-5-methylbenzonitrile] are 8.59 and 2090 nM.
On the same counts, the results for `N#Cc1cnn(-c2cnn(-c3ccc(C(=O)NCc4ccccc4)cn3)c2O)c1` [Example 157, N-benzyl-6-(4-cyano-5′-hydroxy-1′H-[1,4′-bipyrazol]-1′-yl)nicotinamide] are 6.97 and 1700 nM.
On the same counts, the results for `CN1CC(NC(=O)c2ccc(-n3ncc(-c4ccc(C#N)cc4)c3O)nc2)C1` [Example 76, 6-(4-(4-cyanophenyl)-5-hydroxy-1H-pyrazol-1-yl)-N-(1-methylazetidin-3-yl)nicotinamide] are 6.68 and 3090 nM.
Turning to `Cc1c(-c2cnn(-c3ccc(C(=O)N4CC5(CN(C)C5)C4)cn3)c2O)ccc(C#N)c1F` [Example 342, 2-fluoro-4-(5-hydroxy-1-(5-(6-methyl-2,6-diazaspiro[3.3]heptane-2-carbonyl)pyridin-2-yl)-1H-pyrazol-4-yl)-3-methylbenzonitrile], the “PHD Inhibition (pIC50)” value in experiment [1] is 7.60. In addition, the EC50 in experiment [2] was 427 nM.
On the same counts, the results for `Cc1cc(C#N)ccc1-c1cnn(-c2ccc(C(=O)NCC3CCC(F)(F)CC3)cn2)c1O` [Example 247, 6-(4-(4-cyano-2-methylphenyl)-5-hydroxy-1H-pyrazol-1-yl)-N-((4,4-difluorocyclohexyl)methyl)nicotinamide] are 8.2 and 813 nM.
In the case of `COCCC1(NC(=O)c2ccc(-n3ncc(-c4ccnc(OC)c4)c3O)nc2)CC1` [Example 209, 6-(5-hydroxy-4-(2-methoxypyridin-4-yl)-1H-pyrazol-1-yl)-N-(1-(2-methoxyethyl)cyclopropyl)nicotinamide], the “PHD Inhibition (pIC50)” value in experiment [1] turned out to be 6.98. For the same molecule, the EC50 in experiment [2] was 398 nM.
On the same counts, the results for `Cc1cc(C#N)ccc1-c1cnn(-c2ccc(C(=O)NCCCOCC3CC3)cn2)c1O` [Example 70, 6-(4-(4-cyano-2-methylphenyl)-5-hydroxy-1H-pyrazol-1-yl)-N-(3-(cyclopropylmethoxy)propyl)nicotinamide] are 7.17 and 229 nM.
On to `COCC1(NC(=O)c2ccc(-n3ncc(-c4ccc(C#N)cc4C)c3O)nc2)CCCC1` [Example 129, 6-(4-(4-cyano-2-methylphenyl)-5-hydroxy-1H-pyrazol-1-yl)-N-(1-(methoxymethyl)cyclopentyl)nicotinamide], for which the “PHD Inhibition (pIC50)” value in experiment [1] is reported as 7.14. In experiment [2], the EC50 is 186 nM.
`Cc1cc(C#N)ccc1-c1cnn(-c2ccc(C(=O)N3CCC(N(C)C)CC3)cn2)c1O` [Example 416, 4-(1-(5-(4-(dimethylamino)piperidine-1-carbonyl)pyridin-2-yl)-5-hydroxy-1H-pyrazol-4-yl)-3-methylbenzonitrile]: the “PHD Inhibition (pIC50)” value in experiment [1] was 7.78. In addition, the EC50 in experiment [2] was 1410 nM.
As to `COc1cc(-c2cnn(-c3ccc(C(=O)NC4(C)CC4)cn3)c2O)ccn1` [Example 4, 6-(5-hydroxy-4-(2-methoxypyridin-4-yl)-1H-pyrazol-1-yl)-N-(1-methylcyclopropyl)nicotinamide], the “PHD Inhibition (pIC50)” value in experiment [1] turned out to be 6.92. Moreover, in experiment [2], the EC50 is 525 nM.
For `CCN1CCN(C(=O)c2ccc(-n3ncc(-c4ccc(C#N)cc4C)c3O)nc2)[C@H](C)C1` [Example 434, (R)-4-(1-(5-(4-ethyl-2-methylpiperazine-1-carbonyl)pyridin-2-yl)-5-hydroxy-1H-pyrazol-4-yl)-3-methylbenzonitrile], the “PHD Inhibition (pIC50)” value in experiment [1] is reported as 8.20. The EC50 in experiment [2] was 1290 nM.
On the same counts, the results for `COCC1(NC(=O)c2ccc(-n3ncc(-c4ccc(C#N)cc4)c3O)nc2)CC1` [Example 201, 6-(4-(4-cyanophenyl)-5-hydroxy-1H-pyrazol-1-yl)-N-(1-(methoxymethyl)cyclopropyl)nicotinamide] are 7.29 and 776 nM.
With `CO[C@H](C)CCNC(=O)c1ccc(-n2ncc(-c3ccc(C#N)cc3C)c2O)nc1` [Example 371, (R)-6-(4-(4-cyano-2-methylphenyl)-5-hydroxy-1H-pyrazol-1-yl)-N-(3-methoxybutyl)nicotinamide], in experiment [1], the “PHD Inhibition (pIC50)” value amounted to 8.20. The EC50 in experiment [2] is 832 nM.
Take `Cc1cc(C#N)ccc1-c1cnn(-c2ccc(C(=O)N3CCN4CCCC4C3)cn2)c1O` (racemic) [Example 288, (+/−)-4-(5-hydroxy-1-(5-(octahydropyrrolo[1,2-a]pyrazine-2-carbonyl)pyridin-2-yl)-1H-pyrazol-4-yl)-3-methylbenzonitrile]: the IC50 in experiment [1] (read-out: PHD Inhibition (pIC50) (converted)) is 3.31 nM. Besides, the EC50 in experiment [2] is 575 nM.
As to `N#Cc1ccc(-c2cnn(-c3ccc(C(=O)NCC4CCOCC4)cn3)c2O)c(F)c1` [Example 221, 6-(4-(4-cyano-2-fluorophenyl)-5-hydroxy-1H-pyrazol-1-yl)-N-((tetrahydro-2H-pyran-4-yl)methyl)nicotinamide], the “PHD Inhibition (pIC50)” value in experiment [1] is reported as 7.11. Further, the EC50 in experiment [2] is 933 nM.
The corresponding values for `CCN1CCN(C(=O)c2ccc(-n3ncc(-c4cc(F)c(C#N)cc4C)c3O)nc2)C[C@H]1C` [Example 395, (R)-4-(1-(5-(4-ethyl-3-methylpiperazine-1-carbonyl)pyridin-2-yl)-5-hydroxy-1H-pyrazol-4-yl)-2-fluoro-5-methylbenzonitrile] are 8.48 and 2630 nM.
The corresponding values for `N#Cc1ccc(-c2cnn(-c3ccc(C(=O)NCCCn4cccn4)cn3)c2O)cc1` [Example 117, N-(3-(1H-pyrazol-1-yl)propyl)-6-(4-(4-cyanophenyl)-5-hydroxy-1H-pyrazol-1-yl)nicotinamide] are 7.44 and 646 nM.
Consider `CC(NC(=O)c1ccc(-n2ncc(-c3ccc(C#N)cc3)c2O)nc1)C1CC1` (stereo in doubt) [Example 260, (S)-6-(4-(4-cyanophenyl)-5-hydroxy-1H-pyrazol-1-yl)-N-(1-cyclopropylethyl)nicotinamide], for which the “PHD Inhibition (pIC50)” value in experiment [1] is given as 7.17. The “Inhibition of PHD in cells (pEC50)” value in experiment [2] turned out to be 6.23.
Take `Cc1cc(C#N)ccc1-c1cnn(-c2ccc(C(=O)NCCOC(F)(F)F)cn2)c1O` [Example 250, 6-(4-(4-cyano-2-methylphenyl)-5-hydroxy-1H-pyrazol-1-yl)-N-(2-(trifluoromethoxy)ethyl)nicotinamide]: the “PHD Inhibition (pIC50)” value in experiment [1] amounted to 8. For the same molecule, the EC50 in experiment [2] is 457 nM.
The corresponding values for `COCC1(CNC(=O)c2ccc(-n3ncc(-c4ccnc(OC)c4)c3O)nc2)CC1` [Example 14, 6-(5-hydroxy-4-(2-methoxypyridin-4-yl)-1H-pyrazol-1-yl)-N-((1-(methoxymethyl)cyclopropyl)methyl)nicotinamide] are 7.27 and 871 nM.
In the case of `Cc1cc(C#N)ccc1-c1cnn(-c2ccc(C(=O)NC3CC3)cn2)c1O` [Example 127, 6-(4-(4-cyano-2-methylphenyl)-5-hydroxy-1H-pyrazol-1-yl)-N-cyclopropylnicotinamide], the “PHD Inhibition (pIC50)” value in experiment [1] stood at 7.18. Also, in experiment [2], the EC50 was 93.3 nM.
As to `Cc1cc(C#N)ccc1-c1cnn(-c2ccc(C(=O)N3CCCC(N(C)C4CC4)C3)cn2)c1O` (stereo in doubt) [Example 386, (S)-4-(1-(5-(3-(cyclopropyl(methyl)amino)piperidine-1-carbonyl)pyridin-2-yl)-5-hydroxy-1H-pyrazol-4-yl)-3-methylbenzonitrile], the “PHD Inhibition (pIC50)” value in experiment [1] is listed as 8.23. For the same molecule, in experiment [2], the “Inhibition of PHD in cells (pEC50)” value is listed as 6.15.
Take `COc1cc(-c2cnn(-c3ccc(C(=O)N[C@@H](C)C4CCOCC4)cn3)c2O)ccn1` [Example 16, (S)-6-(5-hydroxy-4-(2-methoxypyridin-4-yl)-1H-pyrazol-1-yl)-N-(1-(tetrahydro-2H-pyran-4-yl)ethyl)nicotinamide]: the “PHD Inhibition (pIC50)” value in experiment [1] turned out to be 7.38. For the same molecule, the EC50 in experiment [2] was 200 nM.
On the same counts, the results for `CC[C@H](C)NC(=O)c1ccc(-n2ncc(-c3ccc(C#N)cc3C)c2O)nc1` [Example 122, (S)—N-(sec-butyl)-6-(4-(4-cyano-2-methylphenyl)-5-hydroxy-1H-pyrazol-1-yl)nicotinamide] are 7.06 and 95.5 nM.
